Our source for the IC50, inhibition and Activity values is ChEMBL document CHEMBL5154876, “Design, synthesis and promising anti-tumor efficacy of novel imidazo[1,2-a]pyridine derivatives as potent autotaxin allosteric inhibitors” (Eur J Med Chem, 2022).

One data set addresses Autotaxin (Homo sapiens, UniProt Q13822). Nature of the data set: Negative allosteric modulation activity against human ATX using FS-3 as substrate preincubated for 45 mins followed by substrate addition and measured every 30 mins by multi-mode microplate reader.
In a further data set the test system is NCI-H1581. In words: Cytotoxicity against human NCI-H1581 cells assessed as inhibition of cell growth incubated for 72 hrs by MTT assay. The settings on record: NCI-H1581, 72 h. Format: functional, cell-based. Background: Formazan colour is commonly taken as a measure of viable cells.
For data set [1], the system named is RAW264.7. Nature of the data set: Inhibition of colony formation in mouse RAW264.7 cells incubated for 72 hrs by crystal violet staining method. The settings on record: dose 0.1-1 µM, DDE = dose-dependent effect. Format: functional, cell-based.
Data set [2] relates to RAW264.7. Nature of the data set: Induction of apoptosis in mouse RAW264.7 cells assessed as necrotic cells at 0.5 uM after 48 hrs by Annexin V-FITC/PI based flow cytometric analysis (RVB=0.26%). Format: functional. For orientation: A flow cytometer gives signals particle by particle.
Data set [3] concerns RAW264.7. In words: Induction of apoptosis in mouse RAW264.7 cells assessed as late apoptotic cells at 1 uM after 48 hrs by Annexin V-FITC/PI based flow cytometric analysis (RVB=0.098%). Format: functional.
Data set [4] concerns RAW264.7. Nature of the data set: Induction of apoptosis in mouse RAW264.7 cells assessed as necrotic cells at 1 uM after 48 hrs by Annexin V-FITC/PI based flow cytometric analysis (RVB=0.26%). Format: functional.
The subject of data set [5] is RAW264.7. In words: Induction of cell cycle arrest in mouse RAW264.7 cells assessed as accumulation of cells in G1 phase at 0.1 uM incubated for 24 hrs by PI/RNase staining based flow cytometric analysis (RVB = 55.06%). Format: functional.
Data set [6] concerns RAW264.7. Nature of the data set: Induction of cell cycle arrest in mouse RAW264.7 cells assessed as accumulation of cells in G1 phase at 1 uM incubated for 24 hrs by PI/RNase staining based flow cytometric analysis (RVB = 55.06%). Format: functional.
The test system of data set [7] is RAW264.7. Nature of the data set: Induction of cell cycle arrest in mouse RAW264.7 cells assessed as accumulation of cells in G2 phase at 1 uM incubated for 24 hrs by PI/RNase staining based flow cytometric analysis (RVB = 10.90%). Format: functional.
Data set [8] in a line: Acute toxicity in C57BL/6J mouse assessed as mortality at 1000 to 5000 mg/kg measured after 14 days. Format: organism-based. The settings on record: in vivo, 336 h, dose 1000-5000 mg/kg, time 14 day.
Data set [9] in a line: Acute toxicity in C57BL/6J mouse assessed as secretion in eye corner at 5000 mg/kg measured after 14 days. Format: organism-based. Particulars: in vivo, 336 h, time 14 day.

Molecules are shown by their SMILES. pIC50: −log10 of the molar value.

Take `CCc1nc2c(C)cc(-c3ccc(CN4CCN(CCO)CC4)cc3)cn2c1NC(=O)OCc1cc(Cl)cc(Cl)c1`: the pIC50 was 8.47 at Autotaxin and 5.32 in the data set on NCI-H1581. Besides, the inhibition result in the data set on RAW264.7 [1] is “Dde”. In addition, the Activity in the data set with RAW264.7 [2] is on record as 1.03%; in the data set with RAW264.7 [3] it was 0.74%; in the data set with RAW264.7 [4], 0.83%; in the data set with RAW264.7 [5], 14.72%; in the data set with RAW264.7 [6] it was 7.22%; in the data set with RAW264.7 [7] it was 90.16%. The Activity result in [8] is given as “Non-Toxic”; in data set [9], “Toxic”.

What is called pIC50 is the IC50 on a negative log10 scale, so that one unit is a factor of ten.
